Laboratory results as given in US20240408222A1, “COMPOUNDS, PHARMACEUTICAL COMPOSITIONS, AND METHODS FOR THE TREATMENT, PREVENTION, OR MANAGEMENT OF HYPERPRO[…]” (VINCERX PHARMA GMBH, priority 2021, published 2024).
Where a name gives a salt, the structure may show the parent alone.

How the values were obtained:
Experiment in all cases: Cytotoxicity assay (Version 2, automated, AC50) with/without neutrophil elastase
Settings in all cases: Version 2, activity concentration at −50%
[1] = test system: 786-O; assay type: cell-based, human
Experimental: (§1) Cultivation of cells was performed according to standard procedures with the media recommended by the provider. The cells, in a total volume of 100 μL, were seeded in a 96-well plate with a white bottom (#3610). After a 24 h incubation period at 37° C. and […], the medium was exchanged by adding 90 μL fresh medium. The treatment started by adding the test compound in 10 μL of culture medium to the cells in triplicates. Concentrations ranging from 10^−5 M to 10^−13 M were chosen. Two identically treated sets of samples were prepared. One set was treated with the test compound alone, whereas to the second set the compound and 10 nM elastase was added followed by a 72 h incubation period at 37° C. and […]. The proliferation was detected using the MTT assay (ATCC). At the end of the incubation period the MTT reagent was added to all samples for 4 h. Lysis of the cells followed by addition of the detergent was done overnight. The formed dye was detected at 570 nm. The proliferation of untreated but otherwise identically handled cells was define as the 100% value.
(§2) The cytotoxicity assay (Version 2) was performed as described above. Some changes were applied as the assays were performed in an automated fashion and the IC50 values determination was changed. Here the change in metabolic activity of the cells, in percent, was calculated by normalization of the measured values to the absorbance values of medium containing wells without cells (═−100%) and the absorbance of the DMSO-treated cells (═0%). AC50 values (activity concentration at −50%) were determined by means of a 4 parameter Hill-fit using GeneData Screener software.

[2] = test system: HT29; assay type: cell-based, human
Experimental: as §1, §2

[3] = test system: NCI H292; assay type: cell-based, human
Experimental: as §1, §2

[4] = test system: SUM149; assay type: cell-based
Experimental: as §1, §2

[5] = without (−) neutrophil elastase
[6] = HT29, with (+) neutrophil elastase
[7] = HT29, without (−) neutrophil elastase
[8] = NCI H292, with (+) neutrophil elastase
[9] = NCI H292, without (−) neutrophil elastase
[10] = SUM149, with (+) neutrophil elastase
[11] = SUM149, without (−) neutrophil elastase

Row | Compound | AC50 ([1]; with (+) neutrophil elastase) [nM] | AC50 [1, 5] [nM] | AC50 [2, 6] [nM] | AC50 [2, 7] [nM] | AC50 [3, 8] [nM] | AC50 [3, 9] [nM] | AC50 [4, 10] [nM] | AC50 [4, 11] [nM]
1 | CCCNC(=O)Nc1cccc(S(=O)(=O)Nc2cccc([C@@H](CC(=O)O)NC(=O)Nc3ccc(NC(=O)NCCOCCOCCOCCC(=O)N[C@@H](CC(=O)O)C(=O)N4CCC[C@H]4C(=O)N[C@H](C(=O)N=[S@](C)(=O)Cc4cc5nc(c4)O[C@@H](C)CCCCOc4cc(F)ccc4-c4cc(ncc4F)N5)C(C)C)cc3)c2)c1 (relative stereo) [Compound 55] | 11 to 100 | > 1000 | 11 to 100 | > 1000 | 11 to 100 | > 1000 | ≤ 10 | > 1000
2 | CCCNC(=O)Nc1cccc(S(=O)(=O)Nc2cccc([C@@H](CC(=O)O)NC(=O)Nc3ccc(NC(=O)NCCOCCOCCOCCC(=O)NCCCC[C@H](NC(=O)CCOCCOCCOCCNC(=O)Nc4ccc(NC(=O)N[C@H](CC(=O)O)c5cccc(NS(=O)(=O)c6cccc(NC(=O)NCCC)c6)c5)cc4)C(=O)NCCN(C)CCN(C)CCN(C)CC(=O)N[C@@H](CC(N)=O)C(=O)N4CCC[C@H]4C(=O)N[C@H](C(=O)N=[S@@](C)(=O)Cc4cc5cc(c4)O[C@@H](C)CCOc4cc(F)ccc4-c4nc(ncc4F)N5)C(C)C)cc3)c2)c1 (relative stereo) [Compound 28] | ≤ 10 | > 1000 | ≤ 10 | 100 to 1000 | ≤ 10 | 100 to 1000 | ≤ 10 | 100 to 1000
3 | disodium 1-{(2S)-2-(carboxylatomethyl)-17-[4-({[(1R)-2-carboxylato-1-{3-[({3-[(propylcarbamoyl)amino]phenyl}sulfonyl)amino]phenyl}ethyl]carbamoyl}amino)anilino]-4,17-dioxo-7,10,13-trioxa-3,16-diazaheptadecan-1-oyl}-L-prolyl-N—[(R*)—{[15,19-difluoro-3,4-dihydro-2H,11H-10,6-(azeno)-12,16-(metheno)-1,5,11,13-benzodioxadiazacyclooctadecin-8-yl]methyl}(methyl)oxido-lambda^6-sulfanylidene]-L-valinamide [Compound 42] | ≤ 10 | 100 to 1000 | ≤ 10 | > 1000 | ≤ 10 | 100 to 1000 | ≤ 10 | 100 to 1000
4 | CCCNC(=O)Nc1cccc(S(=O)(=O)Nc2cccc([C@@H](CC(=O)O)NC(=O)Nc3ccc(NC(=O)NCCOCCOCCOCCC(=O)NCCNC(=O)CC[C@H](NC(=O)CCCC(=O)NCCN(C)CCN(C)CCN(C)CC(=O)N[C@@H](CC(N)=O)C(=O)N4CCC[C@H]4C(=O)N[C@H](C(=O)N=[S@@](C)(=O)Cc4cc5cc(c4)OCCCCOc4cc(F)ccc4-c4nc(ncc4F)N5)C(C)C)C(=O)NCCNC(=O)CCOCCOCCOCCNC(=O)Nc4ccc(NC(=O)N[C@H](CC(=O)O)c5cccc(NS(=O)(=O)c6cccc(NC(=O)NCCC)c6)c5)cc4)cc3)c2)c1 [Compound 25] | 11 to 100 | > 1000 | 11 to 100 | > 1000 | 11 to 100 |  | 11 to 100 | 100 to 1000
5 | CCCNC(=O)Nc1cccc(S(=O)(=O)Nc2cccc([C@@H](CC(=O)O)NC(=O)Nc3ccc(NC(=O)NCCN(C)CCN(C)CCN(C)CC(=O)N[C@@H](CC(N)=O)C(=O)N4CCC[C@H]4C(=O)N[C@H](C(=O)N=[S@@](C)(=O)Cc4cc5cc(c4)O[C@@H](C)CCOc4cc(F)ccc4-c4nc(ncc4F)N5)C(C)C)cc3)c2)c1 (single isomer, unassigned) [Compound 24] | ≤ 10 | 100 to 1000 | ≤ 10 | 100 to 1000 | ≤ 10 | 100 to 1000 | ≤ 10 | 100 to 1000
6 | CCCNC(=O)Nc1cccc(S(=O)(=O)Nc2cccc([C@@H](CC(=O)O)NC(=O)Nc3ccc(NC(=O)NCCN(C)CCN(C)CCN(C)CC(=O)N[C@@H](CC(N)=O)C(=O)N4CCC[C@H]4C(=O)N[C@H](C(=O)N=S(C)(=O)Cc4cc5nc(c4)OCCCOc4cc(F)ccc4-c4cc(ncc4F)N5)C(C)C)cc3)c2)c1 (mixture of isomers) [Compound 22] | ≤ 10 | 100 to 1000 | ≤ 10 | 100 to 1000 | ≤ 10 | 100 to 1000 | ≤ 10 | 100 to 1000
7 | CCCNC(=O)Nc1cccc(S(=O)(=O)Nc2cccc([C@@H](CC(=O)O)NC(=O)Nc3ccc(NC(=O)NCCOCCOCCOCCC(=O)N[C@@H](CC(=O)OCCC[N+](C)(C)C)C(=O)N4CCC[C@H]4C(=O)N[C@H](C(=O)N=S(C)(=O)Cc4cc5cc(c4)OCCCCOc4cc(F)ccc4-c4nc(ncc4F)N5)C(C)C)cc3)c2)c1 (single isomer, unassigned) [Compound 20, trifluoroacetate] | 11 to 100 | > 1000 | 11 to 100 | > 1000 | 11 to 100 | > 1000 | 11 to 100 | 100 to 1000
8 | CCCNC(=O)Nc1cccc(S(=O)(=O)Nc2cccc([C@H](CC(=O)O)NC(=O)Nc3ccc(NC(=O)NCCN(C)CCN(C)CCN(C)CC(=O)N[C@@H](CC(N)=O)C(=O)N4CCC[C@H]4C(=O)N[C@H](C(=O)N=S(C)(=O)Cc4cc5nc(c4)OCCCOc4cc(F)ccc4-c4cc(ncc4F)N5)C(C)C)cc3)c2)c1 (mixture of isomers) [Compound 23] | ≤ 10 | 100 to 1000 | ≤ 10 | 100 to 1000 | ≤ 10 | 100 to 1000 | ≤ 10 | 100 to 1000
9 | CCCNC(=O)Nc1cccc(S(=O)(=O)Nc2cccc([C@@H](CC(=O)O)NC(=O)Nc3ccc(NC(=O)NCCOCCOCCOCCC(=O)N[C@@H](CC(=O)O)C(=O)N4CCC[C@H]4C(=O)N[C@H](C(=O)N=S(C)(=O)Cc4cc5cc(c4)OCCCCOc4cc(F)ccc4-c4nc(ncc4F)N5)C(C)C)cc3)c2)c1 (relative stereo) [Compound 36] | 11 to 100 | 100 to 1000 | 11 to 100 | 100 to 1000 | 11 to 100 | 100 to 1000 | 11 to 100 | 100 to 1000
10 | CCCNC(=O)Nc1cccc(S(=O)(=O)Nc2cccc([C@@H](CC(=O)O)NC(=O)Nc3ccc(NC(=O)NCCOCCOCCOCCC(=O)N[C@@H](CC(=O)OCCCCN(C)C)C(=O)N4CCC[C@H]4C(=O)N[C@H](C(=O)N=S(C)(=O)Cc4cc5cc(c4)OCCCCOc4cc(F)ccc4-c4nc(ncc4F)N5)C(C)C)cc3)c2)c1 (single isomer, unassigned) [Compound 21] | 11 to 100 | > 1000 | 11 to 100 | > 1000 | 11 to 100 | 100 to 1000 | 11 to 100 | 100 to 1000
11 | CCCNC(=O)Nc1cccc(S(=O)(=O)Nc2cccc([C@H](CC(=O)O)NC(=O)Nc3ccc(NC(=O)NCCOCCOCCOCCC(=O)N[C@@H](CCCCNC(=O)CCOCCOCCOCCNC(=O)Nc4ccc(NC(=O)N[C@H](CC(=O)O)c5cccc(NS(=O)(=O)c6cccc(NC(=O)NCCC)c6)c5)cc4)C(=O)NCCOCCOCCOCCC(=O)N[C@@H](CC(=O)O)C(=O)N4CCC[C@H]4C(=O)N[C@H](C(=O)N=S(C)(=O)Cc4cc5nc(c4)OCCCOc4cc(F)ccc4-c4cc(ncc4F)N5)C(C)C)cc3)c2)c1 (relative stereo) [Compound 32] | ≤ 10 | 100 to 1000 | ≤ 10 | > 1000 | ≤ 10 | 100 to 1000 | ≤ 10 | 100 to 1000
12 | CCCNC(=O)Nc1cccc(S(=O)(=O)Nc2cccc([C@@H](CC(=O)O)NC(=O)Nc3ccc(NC(=O)NCCOCCOCCOCCC(=O)N[C@@H](CC(=O)O)C(=O)N4CCC[C@H]4C(=O)N[C@@H](C(=O)N=[S@@](C)(=O)Cc4cc5cc(c4)O[C@@H](C)CCOc4cc(F)ccc4-c4nc(ncc4F)N5)C(C)C)cc3)c2)c1 (relative stereo) [Compound 39, N-(14-{4-[({(1R)-2-carboxy-1-[3-({3-[(propylcarbamoyl)amino]benzene-1-sulfonyl}amino)phenyl]ethyl}carbamoyl)amino]anilino}-14-oxo-4,7,10-trioxa-13-azatetradecanan-1-oyl)-L-alpha-aspartyl-L-prolyl-N—[(R*)—{[(4R*)-15,19-difluoro-4-methyl-3,4-dihydro-2H,11H-12,16-(azeno)-10,6-(metheno)-1,5,11,13-benzodioxadiazacyclooctadecin-8-yl]methyl}(methyl)oxo-lambda^6-sulfanylidene]-D-valinamide] | ≤ 10 | 100 to 1000 | ≤ 10 | 100 to 1000 | ≤ 10 | 100 to 1000 | ≤ 10 | 100 to 1000
